Results published in PubChem BioAssay AID1963428 (Molecular Pharmacology Branch, DTP, NCI, 2024).

System: 171881-019-R-J1-PDC complex spheroid growth, % test/control
Assay: Anticancer human tumor 171881-019-R-J1-PDC patient-derived invasive breast carcinoma cell line growth inhibition [Asc]
Conditions: for IC50: curve of first compound; for viability, T/C: stronger effect = lower value; active = viability on the fitted dose curve at most 10% of control; inactive = the rest
How it was run: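 Tumor cells were grown as complex spheroids with human endothelial cells (HUVEC) and human mesenchymal stem cells as stroma. Agents were tested alone and in combination, in half-log steps down from the clinical Cmax, or from 10 microM where Cmax was unknown.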

[1] = second compound 0.01 µM, first compound 0.00316 µM
[2] = second compound 0.01 µM, first compound 0.01 µM
[3] = second compound 0.01 µM, first compound 0.0316 µM
[4] = second compound 0.01 µM, first compound 0.1 µM
[5] = second compound 0.01 µM, first compound 0.316 µM
[6] = second compound 0.01 µM, first compound 1 µM
[7] = second compound 0.0316 µM, first compound 0.00316 µM
[8] = second compound 0.0316 µM, first compound 0.01 µM
[9] = second compound 0.0316 µM, first compound 0.0316 µM
[10] = second compound 0.0316 µM, first compound 0.1 µM
[11] = second compound 0.0316 µM, first compound 0.316 µM
[12] = second compound 0.0316 µM, first compound 1 µM
[13] = second compound 0.1 µM, first compound 0.00316 µM
[14] = second compound 0.1 µM, first compound 0.01 µM
[15] = second compound 0.1 µM, first compound 0.0316 µM
[16] = second compound 0.1 µM, first compound 0.1 µM
[17] = second compound 0.1 µM, first compound 0.316 µM
[18] = second compound 0.1 µM, first compound 1 µM
[19] = second compound 0.316 µM, first compound 0.00316 µM
[20] = second compound 0.316 µM, first compound 0.01 µM
[21] = second compound 0.316 µM, first compound 0.0316 µM
[22] = second compound 0.316 µM, first compound 0.1 µM
[23] = second compound 0.316 µM, first compound 0.316 µM
[24] = second compound 0.316 µM, first compound 1 µM
[25] = second compound 1 µM, first compound 0.00316 µM
[26] = second compound 1 µM, first compound 0.01 µM
[27] = second compound 1 µM, first compound 0.0316 µM
[28] = second compound 1 µM, first compound 0.1 µM
[29] = second compound 1 µM, first compound 0.316 µM
[30] = second compound 1 µM, first compound 1 µM
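Throughout, for viability, T/C: spheroids exposed to compounds for 7 days.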

CCN1CCN(Cc2ccc(Nc3ncc(F)c(-c4cc(F)c5nc(C)n(C(C)C)c5c4)n3)nc2)CC1 + CNC(C)C(=O)NC1CN(S(=O)(=O)c2cccc(S(=O)(=O)N3CCC4CCC(C(=O)NC(c5ccccc5)c5ccccc5)N4C(=O)C(NC(=O)C(C)NC)C3)c2)CCC2CCC(C(=O)NC(c3ccccc3)c3ccccc3)N2C1=O
> 1000 nM: IC50 (second compound 0.01 µM) | IC50 (second compound 0.0316 µM) | IC50 (second compound 0.1 µM) | IC50 (second compound 0.316 µM) | IC50 (second compound 1 µM)
inactive: viability, T/C [1] 94.1% | viability, T/C [2] 102% | viability, T/C [3] 102% | viability, T/C [4] 113% | viability, T/C [5] 131% | viability, T/C [6] 147% | viability, T/C [7] 89.7% | viability, T/C [8] 97.9% | viability, T/C [9] 112% | viability, T/C [10] 124% | viability, T/C [11] 149% | viability, T/C [12] 143% | viability, T/C [13] 112% | viability, T/C [14] 107% | viability, T/C [15] 117% | viability, T/C [16] 128% | viability, T/C [17] 143% | viability, T/C [18] 174% | viability, T/C [19] 101% | viability, T/C [20] 110% | viability, T/C [21] 121% | viability, T/C [22] 130% | viability, T/C [23] 142% | viability, T/C [24] 143% | viability, T/C [25] 89.7% | viability, T/C [26] 110% | viability, T/C [27] 117% | viability, T/C [28] 139% | viability, T/C [29] 131% | viability, T/C [30] 146%

COc1c(OCCCN2CCOCC2)ccc2c3n(c(=NC(=O)c4cnc(N)nc4)nc12)CCN3 + CNC(C)C(=O)NC1CN(S(=O)(=O)c2cccc(S(=O)(=O)N3CCC4CCC(C(=O)NC(c5ccccc5)c5ccccc5)N4C(=O)C(NC(=O)C(C)NC)C3)c2)CCC2CCC(C(=O)NC(c3ccccc3)c3ccccc3)N2C1=O
28.1 nM: IC50 (second compound 0.316 µM)
inactive: viability, T/C [1] 196% | viability, T/C [2] 133% | viability, T/C [3] 49.7% | viability, T/C [4] 15.9% | viability, T/C [7] 215% | viability, T/C [8] 137% | viability, T/C [9] 46.5% | viability, T/C [10] 15.6% | viability, T/C [13] 203% | viability, T/C [14] 135% | viability, T/C [15] 43.8% | viability, T/C [16] 13.1% | viability, T/C [19] 182% | viability, T/C [20] 122% | viability, T/C [21] 41% | viability, T/C [22] 11.9% | viability, T/C [25] 210% | viability, T/C [26] 125% | viability, T/C [27] 43.8% | viability, T/C [28] 10.4%
active: viability, T/C [5] 4.61% | viability, T/C [6] 2.61% | viability, T/C [11] 4.08% | viability, T/C [12] 1.97% | viability, T/C [17] 3.67% | viability, T/C [18] 2.63% | viability, T/C [23] 3.14% | viability, T/C [24] 1.94% | viability, T/C [29] 3.22% | viability, T/C [30] 2.13%
28.7 nM: IC50 (second compound 1 µM)
32.4 nM: IC50 (second compound 0.01 µM)
30.8 nM: IC50 (second compound 0.0316 µM)
29.6 nM: IC50 (second compound 0.1 µM)

NC(=O)C(=Cn1cnc(-c2cc(C(F)(F)F)cc(C(F)(F)F)c2)n1)c1cncnc1 + CNC(C)C(=O)NC1CN(S(=O)(=O)c2cccc(S(=O)(=O)N3CCC4CCC(C(=O)NC(c5ccccc5)c5ccccc5)N4C(=O)C(NC(=O)C(C)NC)C3)c2)CCC2CCC(C(=O)NC(c3ccccc3)c3ccccc3)N2C1=O
58.6 nM: IC50 (second compound 0.316 µM)
active: viability, T/C (second compound 0.01 µM, first compound 0.3 µM) 5.02% | viability, T/C (second compound 0.0316 µM, first compound 0.3 µM) 5.09% | viability, T/C (second compound 0.1 µM, first compound 0.3 µM) 4.5% | viability, T/C (second compound 0.316 µM, first compound 0.3 µM) 4.13% | viability, T/C (second compound 1 µM, first compound 0.3 µM) 3.79%
63 nM: IC50 (second compound 0.01 µM)
61.6 nM: IC50 (second compound 1 µM)
61.9 nM: IC50 (second compound 0.1 µM)
66.3 nM: IC50 (second compound 0.0316 µM)
inactive: viability, T/C (second compound 0.01 µM, first compound 0.000949 µM) 118% | viability, T/C (second compound 0.01 µM, first compound 0.003 µM) 101% | viability, T/C (second compound 0.01 µM, first compound 0.00949 µM) 139% | viability, T/C (second compound 0.01 µM, first compound 0.03 µM) 109% | viability, T/C (second compound 0.01 µM, first compound 0.0949 µM) 17.5% | viability, T/C (second compound 0.0316 µM, first compound 0.000949 µM) 109% | viability, T/C (second compound 0.0316 µM, first compound 0.003 µM) 111% | viability, T/C (second compound 0.0316 µM, first compound 0.00949 µM) 149% | viability, T/C (second compound 0.0316 µM, first compound 0.03 µM) 104% | viability, T/C (second compound 0.0316 µM, first compound 0.0949 µM) 17.8% | viability, T/C (second compound 0.1 µM, first compound 0.000949 µM) 97.9% | viability, T/C (second compound 0.1 µM, first compound 0.003 µM) 109% | viability, T/C (second compound 0.1 µM, first compound 0.00949 µM) 145% | viability, T/C (second compound 0.1 µM, first compound 0.03 µM) 111% | viability, T/C (second compound 0.1 µM, first compound 0.0949 µM) 14.1% | viability, T/C (second compound 0.316 µM, first compound 0.000949 µM) 118% | viability, T/C (second compound 0.316 µM, first compound 0.003 µM) 108% | viability, T/C (second compound 0.316 µM, first compound 0.00949 µM) 149% | viability, T/C (second compound 0.316 µM, first compound 0.03 µM) 98.7% | viability, T/C (second compound 0.316 µM, first compound 0.0949 µM) 15.8% | viability, T/C (second compound 1 µM, first compound 0.000949 µM) 110% | viability, T/C (second compound 1 µM, first compound 0.003 µM) 108% | viability, T/C (second compound 1 µM, first compound 0.00949 µM) 166% | viability, T/C (second compound 1 µM, first compound 0.03 µM) 108% | viability, T/C (second compound 1 µM, first compound 0.0949 µM) 15.6%

NC1CCC(NC2CC2c2ccccc2)CC1 (stereo not given) + CNC(C)C(=O)NC1CN(S(=O)(=O)c2cccc(S(=O)(=O)N3CCC4CCC(C(=O)NC(c5ccccc5)c5ccccc5)N4C(=O)C(NC(=O)C(C)NC)C3)c2)CCC2CCC(C(=O)NC(c3ccccc3)c3ccccc3)N2C1=O
> 100 nM: IC50 (second compound 0.01 µM) | IC50 (second compound 0.0316 µM) | IC50 (second compound 0.1 µM) | IC50 (second compound 0.316 µM) | IC50 (second compound 1 µM)
inactive: viability, T/C (second compound 0.01 µM, first compound 0.000316 µM) 94.2% | viability, T/C (second compound 0.01 µM, first compound 0.001 µM) 86.1% | viability, T/C [1] 82.1% | viability, T/C [2] 87.2% | viability, T/C [3] 83.9% | viability, T/C [4] 81% | viability, T/C (second compound 0.0316 µM, first compound 0.000316 µM) 89.9% | viability, T/C (second compound 0.0316 µM, first compound 0.001 µM) 91.5% | viability, T/C [7] 100% | viability, T/C [8] 84.9% | viability, T/C [9] 79.5% | viability, T/C [10] 79.9% | viability, T/C (second compound 0.1 µM, first compound 0.000316 µM) 103% | viability, T/C (second compound 0.1 µM, first compound 0.001 µM) 103% | viability, T/C [13] 85.4% | viability, T/C [14] 79.1% | viability, T/C [15] 91.8% | viability, T/C [16] 91.8% | viability, T/C (second compound 0.316 µM, first compound 0.000316 µM) 90.4% | viability, T/C (second compound 0.316 µM, first compound 0.001 µM) 86.9% | viability, T/C [19] 84.2% | viability, T/C [20] 95.9% | viability, T/C [21] 85.3% | viability, T/C [22] 81.2% | viability, T/C (second compound 1 µM, first compound 0.000316 µM) 91.5% | viability, T/C (second compound 1 µM, first compound 0.001 µM) 96.6% | viability, T/C [25] 87.9% | viability, T/C [26] 85.2% | viability, T/C [27] 92.8% | viability, T/C [28] 86%
